Among the data in patent US20260062422A1 (Halda Therapeutics OpCo, Inc., priority 2022, published 2026) are GI50 values, retold here.

This experiment deals with T-Rex 293 cell line SC cells having increased expression of progesterone receptor isoform B protein due to exposure to doxycycline. The experiment in a line: Cellular growth inhibition, T-Rex 293 SC cells with doxycycline (progesterone receptor isoform B induced), Example 47. As to conditions: progesterone receptor isoform B induced with 10 ng/mL doxycycline, 72 hours, CellTiter-Glo 2.0, Table 14 (Example 47). In kind it is cell-based. The procedure:
The following types of cells were prepared for this experiment: (i) a T-Rex 293 cell line having increased expression of progesterone receptor isoform B protein due to exposure to doxycycline and (ii) a T-Rex 293 cell line lacking increased expression of progesterone receptor isoform B protein. Ability of the test compounds to inhibit proliferation of the foregoing cell types was evaluated according to the procedures set forth below.
The doxycycline-inducible progesterone receptor isoform B protein expressing cell line was established using the following protocol: T-Rex 293 cells were purchased from Invitrogen (Cat #R71007) and transfected using Lipofectamine 2000 with the wild-type progesterone receptor B protein sequence cloned into the pcDNA4/TO vector. Transfected cells were selected using 400 μg/mL Zeocin (Invitrogen Cat #R25001). Following selection, single clones were raised and maintained in Dulbecco's Modified Eagle Medium (DMEM) supplemented with 10% w/w Tetracycline-free fetal bovine serum (FBS) and 250 μg/mL Zeocin. Clones were analyzed for expression of progesterone receptor isoform B protein in the presence and absence of 10 ng/mL doxycycline (Sigma Cat #D9891), and a single doxycycline-inducible clone (hereinafter “SC”) was selected for use in downstream assays.
The SC cells were seeded on poly-D-lysine coated, black clear-bottom 384-well plates at 2500/well, in 25 μL Phenol Red Free Dulbecco's Modified Eagle Medium (DMEM) supplemented with 10% w/w charcoal-dextran treated fetal bovine serum (FBS) and 1% w/w pen-strep, with or without 10 ng/mL doxycycline. Pen-Strep is a commercially available mixture of penicillin G and streptomycin, which is used in mammalian cell culture media to prevent bacterial contamination. Phenol Red Free Dulbecco's Modified Eagle Medium (DMEM) supplemented with 10% w/w charcoal-dextran treated fetal bovine serum (FBS) and 1% w/w pen-strep, with or without 10 ng/mL doxycycline is herein referred to as Treatment Medium. Following seeding of cells in the plates, the plates were spun at 300×g for 30 seconds, then equilibrated to room temperature for 30 minutes, and then deposited in a humidified tissue culture incubator maintained at 37° C. with 5% CO2.
At 24 hours after seeding of the cells, dilutions of test compound were prepared in DMSO and dissolved in Treatment Medium, to achieve a final DMSO concentration of 0.5% w/w, thereby providing the Test Compound Solution. A 25 μL aliquot of the Test Compound Solution was added to cells in the well plates. An equal volume of a solution containing DMSO and Treatment Medium was used as a negative control. Following treatment of cells with Test Compound Solution or said equal volume of a solution containing DMSO and Treatment Medium, the plates were spun at 300×g for 30 seconds, and then left in an incubator for 72 hours.
At the end of the treatment duration, cell viability was quantified with CellTiter-Glo 2.0 reagent (Promega Cat #G9243). For this purpose, plates were equilibrated to room temperature for 30 minutes, and then 25 μL of CellTiter-Glo 2.0 reagent was added to cells in the plate wells. Plates were then agitated on a shaker for two minutes at 500 rpm and subsequently incubated at room temperature for 10 minutes. Following incubation, the plates were spun at 3000×g for 30 seconds, then sealed with an optical adhesive cover, and luminescence readings were measured with an EnVision Plate Reader (Perkin Elmer).
Data was normalized using zero luminescence for baseline. A four-parameter non-linear regression curve fit was applied to dose-response data in GraphPad Prism data analysis software to determine the half-maximal growth inhibitory concentration (GI50) for each test compound.

The GI50 is the concentration giving 50% growth inhibition. A lower GI50 goes with greater sensitivity of the cells. For `Cc1sc2c(c1C)C(c1ccc(Cl)cc1)=N[C@@H](CC(=O)NCCCCCOC1CCN(c3ncc(C(=O)N[C@H]4C(C)(C)[C@H](Oc5ccc(C#N)c(Cl)c5)C4(C)C)cn3)CC1)c1nnc(C)n1-2` [Compound I-22, N-((1r,3r)-3-(3-chloro-4-cyanophenoxy)-2,2,4,4-tetramethylcyclobutyl)-2-(4-((5-(2-((S)-4-(4-chlorophenyl)-2,3,9-trimethyl-6H-thieno[3,2-A][1,2,4]triazolo[4,3-a][1,4]diazepin-6-yl)acetamido)pentyl)oxy)piperidin-1-yl)pyrimidine-5-carboxamide], the GI50 is over 3000 nM.
